For 18 molecules, IC50 results are on record in patent US10039753B2, “Imidazo[4,5-c]quinoline and imidazo[4,5-c][1,5]naphthyridine derivatives as LRRK2 inhibitors” (Pfizer Inc., priority 2015, dated 2018).

In general, IC50 refers to the concentration that gives 50% inhibition.

Structures are written as SMILES.

Experiment [1] concerns the target T1, GST-tagged truncated LRRK2 (Homo sapiens, UniProt Q5S007).
T1 construct: GST-tagged truncated LRRK2 from Invitrogen (Cat # PV4874); GST; purchased Invitrogen PV4874
Description: LRRK2 Assay, Format 1 (Lantha Screen), WT. It is filed as biochemical. Put shortly: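 Kinase activity measured by TR-FRET: GST-tagged truncated LRRK2 (4 μg/mL working solution) reacted with fluorescein-labeled LRRKtide (ERM-based peptide) across a compound dose response for 2 h at room temperature. Reaction stopped with EDTA-containing detection buffer (20 mM Tris pH 7.6) holding 2 nM terbium anti-phospho-ERM antibody.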

The target in experiment [2] is T1, GST-tagged truncated LRRK2. Description: LRRK2 Assay, Format 2 (Lantha Screen), WT. In kind it is biochemical.
Experiment [3] concerns the target T2, mutant G2019S LRRK2 (Homo sapiens, UniProt Q5S007, G2019S). Description: LRRK2 Assay, Format 2 (Lantha Screen), G2019S mutant. In kind it is biochemical. Set-up: purchased Invitrogen PV4881.
For experiment [4], the target named is T2, mutant G2019S LRRK2. Description: LRRK2 Assay, Format 1 (Lantha Screen), G2019S mutant.
Where [5] appears, read: 100 nM LRRKtide, 50 μM ATP, 1.7 μg/mL LRRK2 enzyme, two hours at room temperature.
Where [6] appears, read: geometric mean of 2-4 determinations unless otherwise indicated.
Where [7] appears, read: geometric mean of 2-4 determinations unless otherwise indicated (a: >=5; b: single determination).
Where [8] appears, read: geometric mean of 2-4 determinations unless otherwise indicated (a: >=5; b: single determination), read-out: LRRK2, Format 2 G2019S IC50.

T2 sequence (Q5S007 970-2527 G2019S limits assumed): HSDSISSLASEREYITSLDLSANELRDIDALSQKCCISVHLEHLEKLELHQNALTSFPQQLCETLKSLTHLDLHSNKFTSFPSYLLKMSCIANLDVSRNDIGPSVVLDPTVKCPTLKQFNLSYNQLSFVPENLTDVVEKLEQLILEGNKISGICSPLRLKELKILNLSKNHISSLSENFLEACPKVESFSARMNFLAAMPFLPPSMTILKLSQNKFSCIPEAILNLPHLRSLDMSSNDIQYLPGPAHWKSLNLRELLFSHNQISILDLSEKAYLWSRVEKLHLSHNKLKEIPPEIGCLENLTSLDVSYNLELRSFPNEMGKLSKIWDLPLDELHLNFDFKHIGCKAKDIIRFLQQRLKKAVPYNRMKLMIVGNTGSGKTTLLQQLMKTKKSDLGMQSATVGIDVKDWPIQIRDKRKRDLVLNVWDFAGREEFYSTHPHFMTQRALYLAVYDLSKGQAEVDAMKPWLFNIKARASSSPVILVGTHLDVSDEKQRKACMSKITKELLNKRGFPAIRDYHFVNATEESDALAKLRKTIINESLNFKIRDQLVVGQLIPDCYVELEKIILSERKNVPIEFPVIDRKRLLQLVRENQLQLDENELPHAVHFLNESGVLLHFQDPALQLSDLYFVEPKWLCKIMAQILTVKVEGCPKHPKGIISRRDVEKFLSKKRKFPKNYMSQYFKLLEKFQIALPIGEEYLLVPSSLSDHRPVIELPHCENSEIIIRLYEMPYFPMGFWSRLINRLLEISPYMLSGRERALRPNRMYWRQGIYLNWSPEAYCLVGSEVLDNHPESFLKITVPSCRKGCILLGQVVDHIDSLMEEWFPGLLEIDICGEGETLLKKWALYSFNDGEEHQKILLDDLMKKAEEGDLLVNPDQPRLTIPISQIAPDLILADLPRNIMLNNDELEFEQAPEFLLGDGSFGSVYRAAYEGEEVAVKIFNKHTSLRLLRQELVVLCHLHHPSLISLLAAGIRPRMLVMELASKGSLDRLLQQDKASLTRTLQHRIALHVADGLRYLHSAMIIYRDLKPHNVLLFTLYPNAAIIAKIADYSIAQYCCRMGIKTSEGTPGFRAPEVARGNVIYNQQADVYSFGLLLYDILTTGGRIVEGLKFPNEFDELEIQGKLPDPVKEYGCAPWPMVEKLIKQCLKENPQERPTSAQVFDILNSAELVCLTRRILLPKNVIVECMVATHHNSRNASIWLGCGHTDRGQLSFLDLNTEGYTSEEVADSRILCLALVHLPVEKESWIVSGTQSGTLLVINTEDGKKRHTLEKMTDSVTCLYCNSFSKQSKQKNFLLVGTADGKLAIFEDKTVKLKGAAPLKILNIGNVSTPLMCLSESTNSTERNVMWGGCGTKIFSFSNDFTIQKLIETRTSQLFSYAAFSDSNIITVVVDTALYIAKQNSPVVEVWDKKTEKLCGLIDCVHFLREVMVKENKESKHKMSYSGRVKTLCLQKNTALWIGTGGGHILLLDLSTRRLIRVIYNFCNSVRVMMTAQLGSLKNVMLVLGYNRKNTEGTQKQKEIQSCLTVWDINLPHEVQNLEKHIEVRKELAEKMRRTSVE
T1 sequence (Q5S007 970-2527 limits assumed): as the sequence (Q5S007 970-2527 G2019S limits assumed) above, with S1050G counted along it

Consider `Cc1nc(Cc2nc3cnc4ccc(Cl)cc4c3n2C2C[C@@H](C)[C@@H](F)C2)no1` (mixture of isomers) [diastereomer of Example 136, 8-chloro-1-[rel-(3S,4R)-3-fluoro-4-methylcyclopentyl]-2-[(5-methyl-1,2,4-oxadiazol-3-yl)methyl]-1H-imidazo[4,5-c]quinoline, DIAST-2], for which the IC50 in experiment [1] (setting [5]) was found to be 156 nM; in experiment [2] (100 nM LRRKtide, 1000 mM ATP (so in the source), 30 minutes at room temperature) it was 63.2 nM; in experiment [3] (100 nM LRRKtide, 1000 mM ATP (so in the source), 30 minutes at room temperature, read-out: LRRK2, Format 2 G2019S mutant IC50), 69.2 nM; in experiment [4], 105 nM.

For the molecule `Cc1nc(Cc2nc3cnc4ccc(Cl)cc4c3n2C2C[C@@H](C)[C@@H](F)C2)no1` (single isomer, unassigned) [Example 136], the IC50 in experiment [1] (setting [6]) is 30.1 nM; in experiment [2] (setting [7]) it was 12 nM; in experiment [3] (setting [8]), 13 nM; in experiment [4] it was 24.7 nM.

For `Cc1cc(Cc2nc3cnc4ccc(Cl)cc4c3n2[C@@H]2CCO[C@H](CC#N)C2)no1` (single isomer, unassigned; ent-1) [Example 134, [cis-4-{8-chloro-2-[(5-methyl-1,2-oxazol-3-yl)methyl]-1H-imidazo[4,5-c]quinolin-1-yl}tetrahydro-2H-pyran-2-yl]acetonitrile, ENT-1], the IC50 in experiment [1] (setting [6]) came out at 3.48 nM; in experiment [2] (setting [7]), 7.68 nM; in experiment [3] (setting [8]), 7.78 nM; in experiment [4], 3.78 nM.

With `Cc1nc(Cc2nc3cnc4ccc(Cl)cc4c3n2[C@@H]2CCO[C@H](CC#N)C2)no1` (single isomer, unassigned; ent-1) [Example 135, [cis-4-{8-chloro-2-[(5-methyl-1,2,4-oxadiazol-3-yl)methyl]-1H-imidazo[4,5-c]quinolin-1-yl}tetrahydro-2H-pyran-2-yl]acetonitrile, ENT-1], the IC50 in experiment [1] (setting [6]) turned out to be 3.78 nM; in experiment [2] (setting [7]) it was 16 nM; in experiment [3] (setting [8]) it was 15.5 nM; in experiment [4], 3.65 nM.

Regarding `C[C@@H]1C[C@H](n2c(Cc3cc(C4CC4)on3)nc3cnc4ccc(C#N)cc4c32)CCO1` [Example 145, 2-[(5-cyclopropyl-1,2-oxazol-3-yl)methyl]-1-[(2R,4R)-2-methyltetrahydro-2H-pyran-4-yl]-1H-imidazo[4,5-c]quinoline-8-carbonitrile], the IC50 stood at 4.78 nM in experiment [1] (setting [6]), 6.98 nM in experiment [2] (setting [7]), 7.33 nM in experiment [3] (setting [8]) and 4.8 nM in experiment [4].

Turning to `CC(C)c1cc(Cc2nc3cnc4ccc(Br)cc4c3n2[C@@H]2CCO[C@H](C)C2)no1` [Example 171, 8-bromo-1-[(2R,4R)-2-methyltetrahydro-2H-pyran-4-yl]-2-{[5-(propan-2-yl)-1,2-oxazol-3-yl]methyl}-1H-imidazo[4,5-c]quinoline], the half-inhibitory concentration (IC50) stood at 17.1 nM in experiment [1] (setting [6]), 5.2 nM in experiment [2] (setting [7]), 5.35 nM in experiment [3] (setting [8]) and 15.9 nM in experiment [4].

Turning to `C[C@@H]1C[C@H](n2c(Cc3cc(C4CC4)on3)nc3cnc4ccc(Br)cc4c32)CCO1` [Example 172, 8-bromo-2-[(5-cyclopropyl-1,2-oxazol-3-yl)methyl]-1-[(2R,4R)-2-methyltetrahydro-2H-pyran-4-yl]-1H-imidazo[4,5-c]quinoline], the half-inhibitory concentration (IC50) is 14.4 nM in experiment [1] (setting [6]), 6 nM in experiment [2] (setting [7]), 6.34 nM in experiment [3] (setting [8]) and 9.17 nM in experiment [4].

In the case of `Cc1cn(Cc2nc3cnc4ccc(Br)cc4c3n2[C@@H]2CCO[C@H](C)C2)nn1` [Example 173, 8-bromo-1-[(2R,4R)-2-methyltetrahydro-2H-pyran-4-yl]-2-[(4-methyl-1H-1,2,3-triazol-1-yl)methyl]-1H-imidazo[4,5-c]quinoline], the concentration for half-maximal inhibition (IC50) is 5.14 nM in experiment [1] (setting [6]), 6.7 nM in experiment [2] (setting [7]), 6.72 nM in experiment [3] (setting [8]) and 3.62 nM in experiment [4].

For `C[C@@H]1C[C@@H](n2c(Cc3ccon3)nc3cnc4ccc(C#N)cc4c32)CCO1` [enantiomer of Example 24, 1-[(2R,4S)-2-methyltetrahydro-2H-pyran-4-yl]-2-(1,2-oxazol-3-ylmethyl)-1H-imidazo[4,5-c]quinoline-8-carbonitrile], the results for the IC50 in experiment [1] (setting [5]) and in experiment [4] were 267 nM and 134 nM, respectively.

Consider `C[C@H]1C[C@@H](n2c(Cc3ccon3)nc3cnc4ccc(F)cc4c32)CCO1` [enantiomer of Example 54, 8-fluoro-1-[(2S,4S)-2-methyltetrahydro-2H-pyran-4-yl]-2-(1,2-oxazol-3-ylmethyl)-1H-imidazo[4,5-c]quinoline], for which the IC50 in experiment [1] (setting [5]) was found to be 332 nM; in experiment [4], 236 nM.

On to `C[C@H]1C[C@@H](n2c(Cc3cscn3)nc3cnc4ccc(C#N)cc4c32)CCO1` [enantiomer of Example 57, 1-[(2S,4S)-2-methyltetrahydro-2H-pyran-4-yl]-2-(1,3-thiazol-4-ylmethyl)-1H-imidazo[4,5-c]quinoline-8-carbonitrile], for which the values for the concentration for half-maximal inhibition (IC50) in experiment [1] (setting [5]) and in experiment [4] were 382 nM and 196 nM, respectively.

For the molecule `COc1ccc2ncc3nc(Cc4ccon4)n([C@H]4CCO[C@@H](C)C4)c3c2c1` [enantiomer of Example 62, 8-methoxy-1-[(2S,4S)-2-methyltetrahydro-2H-pyran-4-yl]-2-(1,2-oxazol-3-ylmethyl)-1H-imidazo[4,5-c]quinoline], the figures for the concentration for half-maximal inhibition (IC50) in experiment [1] (setting [5]) and in experiment [4] were 1710 nM and 508 nM, respectively.

Take `C[C@H]1C[C@@H](n2c(Cn3cncn3)nc3cnc4ccc(Cl)cc4c32)CCO1` [enantiomer of Example 65, 8-chloro-1-[(2S,4S)-2-methyltetrahydro-2H-pyran-4-yl]-2-(1H-1,2,4-triazol-1-ylmethyl)-1H-imidazo[4,5-c]quinoline]: the IC50 in experiment [1] (setting [5]) turned out to be 687 nM; in experiment [4] it was 241 nM.

Turning to `CC[C@H]1C[C@@H](n2c(Cc3ccon3)nc3cnc4ccc(C#N)cc4c32)CCO1` [enantiomer of Example 67, 1-[(2S,4S)-2-ethyltetrahydro-2H-pyran-4-yl]-2-(1,2-oxazol-3-ylmethyl)-1H-imidazo[4,5-c]quinoline-8-carbonitrile], the 50% inhibitory concentration (IC50) in experiment [1] (setting [5]) stood at 699 nM; in experiment [4] it was 403 nM.

Consider `C[C@H]1C[C@@H](n2c(Cc3ccon3)nc3cnc4cccnc4c32)CCO1` [enantiomer of Example 68, 1-[(2 S,4S)-2-methyltetrahydro-2H-pyran-4-yl]-2-(1,2-oxazol-3-ylmethyl)-1H-imidazo[4,5-c][1,5]naphthyridine], for which the half-inhibitory concentration (IC50) turned out to be 853 nM in experiment [1] (setting [5]) and 632 nM in experiment [4].

For `COc1ccc2ncc3nc(Cc4noc(C)n4)n([C@H]4CCO[C@@H](C)C4)c3c2c1` [enantiomer of Example 87, 8-methoxy-2-[(5-methyl-1,2,4-oxadiazol-3-yl)methyl]-1-[(2S,4S)-2-methyltetrahydro-2H-pyran-4-yl]-1H-imidazo[4,5-c]quinoline], the figures for the IC50 in experiment [1] (setting [5]) and in experiment [4] were 2850 nM and 929 nM, respectively.

On to `COc1ccc2ncc3nc(Cn4cc(C)nn4)n([C@H]4CCO[C@@H](C)C4)c3c2c1` [enantiomer of Example 88, 8-methoxy-1-[(2S,4S)-2-methyltetrahydro-2H-pyran-4-yl]-2-[(4-methyl-1H-1,2,3-triazol-1-yl)methyl]-1H-imidazo[4,5-c]quinoline], for which the concentration for half-maximal inhibition (IC50) in experiment [1] (setting [5]) came out at 1050 nM; in experiment [4], 372 nM.

`COc1ccc2ncc3nc(Cc4cn5ncsc5n4)n([C@H]4CCO[C@@H](C)C4)c3c2c1` [enantiomer of Example 90, 2-(imidazo[2,1-b][1,3,4]thiadiazol-6-ylmethyl)-8-methoxy-1-[(2S,4S)-2-methyltetrahydro-2H-pyran-4-yl]-1H-imidazo[4,5-c]quinoline]: the IC50 in experiment [1] (setting [5]) was 623 nM; in experiment [4] it was 245 nM.
